Data as given in US5427942A (State of Oregon, Acting by and Through the Oregon State …, priority 1991, dated 1995).

Key:
[1] = system: D5 pseudogenes D5.psi.1 (HGRI-6) and D5.psi.2 (HGRI-8); test: [3H]SCH23390 binding to membranes of cells transfected with putative pseudogenes; design: species or system human; settings: each of the two putative pseudogenes
[2] = system: COS-7 cells; settings: previously shown (Zhou et al., 1990); cited from earlier work

CN1CCc2cc(Cl)c(O)cc2[C@@H](c2ccccc2)C1 [[^3 H]SCH23390]
binding to pseudogene-transfected membranes [1]: failed to bind

CN1CCc2cc(Cl)c(O)cc2[C@@H](c2ccccc2)C1 [SCH23390]
ability to bind SCH23390 [2]: lack the ability to bind
